Assay results from PubChem BioAssay AID1259407 (Chemical Carcinogenesis Research Information System (CCRIS), 2018).
Activity calls are given as the source filed them. No rule for the calls is given here.

Tested on: CCRIS mutagenicity, Ames/micronucleus/aberration tests
Experiment: CCRIS mutagenicity studies
[1] = Test System: AMES SALMONELLA TYPHIMURIUM, Strain/Indicator: TA98, Metabolic Activation: NONE, Method: PREINCUBATION
[2] = Test System: AMES SALMONELLA TYPHIMURIUM, Strain/Indicator: TA100, Metabolic Activation: NONE, Method: PREINCUBATION
[3] = Test System: AMES SALMONELLA TYPHIMURIUM, Strain/Indicator: TA98, Metabolic Activation: NONE, Method: STANDARD PLATE
[4] = Test System: AMES SALMONELLA TYPHIMURIUM, Strain/Indicator: TA98, Metabolic Activation: RAT, LIVER, S-9, AROCLOR 1254, Method: STANDARD PLATE
[5] = Test System: AMES SALMONELLA TYPHIMURIUM, Strain/Indicator: TA100, Metabolic Activation: NONE, Method: STANDARD PLATE
[6] = Test System: AMES SALMONELLA TYPHIMURIUM, Strain/Indicator: TA100, Metabolic Activation: RAT, LIVER, S-9, AROCLOR 1254, Method: STANDARD PLATE
[7] = Test System: AMES SALMONELLA TYPHIMURIUM, Strain/Indicator: TA1535, Metabolic Activation: NONE, Method: STANDARD PLATE
[8] = Test System: AMES SALMONELLA TYPHIMURIUM, Strain/Indicator: TA1535, Metabolic Activation: RAT, LIVER, S-9, AROCLOR 1254, Method: STANDARD PLATE
[9] = Test System: AMES SALMONELLA TYPHIMURIUM, Strain/Indicator: TA1537, Metabolic Activation: NONE, Method: STANDARD PLATE
[10] = Test System: AMES SALMONELLA TYPHIMURIUM, Strain/Indicator: TA1537, Metabolic Activation: RAT, LIVER, S-9, AROCLOR 1254, Method: STANDARD PLATE
[11] = Test System: E. COLI, Strain/Indicator: WP2, Metabolic Activation: NONE, Method: STANDARD PLATE
[12] = Test System: E. COLI, Strain/Indicator: WP2, Metabolic Activation: RAT, LIVER, S-9, AROCLOR 1254, Method: STANDARD PLATE

Compound: OCCCCCCO
- mutagenic call [1]: inactive; negative
- mutagenic call (Test System: AMES SALMONELLA TYPHIMURIUM, Strain/Indicator: TA98, Metabolic Activation: RAT LIVER S-9, PHENOBARBITAL AND BETA-NAPHTHOFLAVONE, Method: PREINCUBATION): inactive; negative
- mutagenic call [2]: inactive; negative
- mutagenic call (Test System: AMES SALMONELLA TYPHIMURIUM, Strain/Indicator: TA100, Metabolic Activation: RAT LIVER S-9, PHENOBARBITAL AND BETA-NAPHTHOFLAVONE, Method: PREINCUBATION): inactive; negative
- mutagenic call (Test System: AMES SALMONELLA TYPHIMURIUM, Strain/Indicator: TA1535, Metabolic Activation: NONE, Method: PREINCUBATION): inactive; negative
- mutagenic call (Test System: AMES SALMONELLA TYPHIMURIUM, Strain/Indicator: TA1535, Metabolic Activation: RAT LIVER S-9, PHENOBARBITAL AND BETA-NAPHTHOFLAVONE, Method: PREINCUBATION): inactive; negative
- mutagenic call (Test System: AMES SALMONELLA TYPHIMURIUM, Strain/Indicator: TA1537, Metabolic Activation: NONE, Method: PREINCUBATION): inactive; negative
- mutagenic call (Test System: AMES SALMONELLA TYPHIMURIUM, Strain/Indicator: TA1537, Metabolic Activation: RAT LIVER S-9, PHENOBARBITAL AND BETA-NAPHTHOFLAVONE, Method: PREINCUBATION): inactive; negative
- mutagenic call (Test System: E.COLI, Strain/Indicator: WP2UVRA/PKM101, Metabolic Activation: NONE, Method: PREINCUBATION): inactive; negative
- mutagenic call (Test System: E.COLI, Strain/Indicator: WP2UVRA/PKM101, Metabolic Activation: RAT LIVER S-9, PHENOBARBITAL AND BETA-NAPHTHOFLAVONE, Method: PREINCUBATION): inactive; negative

Compound: CC(=O)OC(OC(C)=O)c1ccc([N+](=O)[O-])o1
- mutagenic call (Test System: AMES SALMONELLA TYPHIMURIUM, Strain/Indicator: TA98(1,8-DNP6), Metabolic Activation: NONE, Method: STANDARD PLATE): active; positive
- mutagenic call (Test System: AMES SALMONELLA TYPHIMURIUM, Strain/Indicator: TA98(1,8-DNP6), Metabolic Activation: RAT, LIVER, S-9, 3-METHYLCHOLANTHRENE, Method: STANDARD PLATE): active; positive
- mutagenic call (Test System: AMES SALMONELLA TYPHIMURIUM, Strain/Indicator: TA98(NR), Metabolic Activation: NONE, Method: STANDARD PLATE): active; positive
- mutagenic call (Test System: AMES SALMONELLA TYPHIMURIUM, Strain/Indicator: TA98(NR), Metabolic Activation: RAT, LIVER, S-9, 3-METHYLCHOLANTHRENE, Method: STANDARD PLATE): active; positive
- mutagenic call [3]: active; positive
- mutagenic call (Test System: AMES SALMONELLA TYPHIMURIUM, Strain/Indicator: TA98, Metabolic Activation: RAT, LIVER, S-9, 3-METHYLCHOLANTHRENE, Method: STANDARD PLATE): active; positive
- mutagenic call (Test System: E. COLI, Strain/Indicator: WP2 UVRA, Metabolic Activation: NONE, Method: SPOT): active; positive

Compound: CN(C)C1Cc2cccc3cccc(c23)C1
- mutagenic call (Test System: AMES SALMONELLA TYPHIMURIUM, Strain/Indicator: TA97, Metabolic Activation: NONE, Method: STANDARD PLATE): inactive; negative
- mutagenic call (Test System: AMES SALMONELLA TYPHIMURIUM, Strain/Indicator: TA97, Metabolic Activation: RAT, LIVER, S-9, AROCLOR 1254, Method: STANDARD PLATE): inactive; negative
- mutagenic call [3]: inactive; negative
- mutagenic call [4]: active; positive
- mutagenic call [5]: inactive; negative
- mutagenic call [6]: inactive; negative
- mutagenic call (Test System: AMES SALMONELLA TYPHIMURIUM, Strain/Indicator: TA102, Metabolic Activation: NONE, Method: STANDARD PLATE): inactive; negative
- mutagenic call (Test System: AMES SALMONELLA TYPHIMURIUM, Strain/Indicator: TA102, Metabolic Activation: RAT, LIVER, S-9, AROCLOR 1254, Method: STANDARD PLATE): inactive; negative
- mutagenic call [7]: inactive; negative
- mutagenic call [8]: inactive; negative

Compound: CCCCCOC(=O)C=Cc1ccc([N+](=O)[O-])o1
- mutagenic call [1]: active; positive

Compound: COCC1O[C@@H](O[C@@H]2C(COC)OC(OC)C(OC)C2OC)C(OC)C(OC)C1OC (stereo partly specified)
- mutagenic call [3]: inactive; negative
- mutagenic call [4]: inactive; negative
- mutagenic call [5]: inactive; negative
- mutagenic call [6]: inactive; negative
- mutagenic call [7]: inactive; negative
- mutagenic call [8]: inactive; negative
- mutagenic call [9]: inactive; negative
- mutagenic call [10]: inactive; negative
- mutagenic call (Test System: AMES SALMONELLA TYPHIMURIUM, Strain/Indicator: TA1538, Metabolic Activation: NONE, Method: STANDARD PLATE): inactive; negative
- mutagenic call (Test System: AMES SALMONELLA TYPHIMURIUM, Strain/Indicator: TA1538, Metabolic Activation: RAT, LIVER, S-9, AROCLOR 1254, Method: STANDARD PLATE): inactive; negative
- mutagenic call [11]: inactive; negative
- mutagenic call [12]: inactive; negative

Compound: CC(C)=CC1C(C(=O)O)C1(C)C (stereo unspecified)
- mutagenic call [3]: inactive; negative
- mutagenic call [4]: inactive; negative
- mutagenic call [5]: inactive; negative
- mutagenic call [6]: inactive; negative
- mutagenic call [7]: inactive; negative
- mutagenic call [8]: inactive; negative
- mutagenic call [9]: inactive; negative
- mutagenic call [10]: inactive; negative
- mutagenic call [11]: inactive; negative
- mutagenic call [12]: inactive; negative

Compound: Cc1nc(N)cc2[nH]c3ccccc3c12
- mutagenic call (Test System: AMES SALMONELLA TYPHIMURIUM, Strain/Indicator: TA98, Metabolic Activation: HUMAN, BLOOD, CYTOSOL, Method: PREINCUBATION): active; positive
- mutagenic call (Test System: AMES SALMONELLA TYPHIMURIUM, Strain/Indicator: TA98, Metabolic Activation: MOUSE, LIVER, HEPATOCYTES): active; positive
- mutagenic call (Test System: AMES SALMONELLA TYPHIMURIUM, Strain/Indicator: TA98, Metabolic Activation: MOUSE, LIVER, HEPATOCYTES, 2,3,7,8-TETRACHLORODIBENZO-P-DIOXIN): active; positive
- mutagenic call (Test System: AMES SALMONELLA TYPHIMURIUM, Strain/Indicator: TA98, Metabolic Activation: MOUSE, LIVER, MICROSOMES): active; positive
- mutagenic call (Test System: AMES SALMONELLA TYPHIMURIUM, Strain/Indicator: TA98, Metabolic Activation: MOUSE, LIVER, MICROSOMES, 2,3,7,8-TETRACHLORODIBENZO-P-DIOXIN): active; positive
- mutagenic call (Test System: AMES SALMONELLA TYPHIMURIUM, Strain/Indicator: TA98, Metabolic Activation: MOUSE, LIVER, MICROSOMES, TCDD, Method: STANDARD PLATE): active; positive
- mutagenic call (Test System: AMES SALMONELLA TYPHIMURIUM, Strain/Indicator: TA98, Metabolic Activation: MOUSE, LIVER, MICROSOMES, Method: STANDARD PLATE): active; positive
- mutagenic call (Test System: AMES SALMONELLA TYPHIMURIUM, Strain/Indicator: TA98, Metabolic Activation: RAT, BLADDER, S-9, PCB, Method: FLUCTUATION TEST): active; positive
- mutagenic call (Test System: AMES SALMONELLA TYPHIMURIUM, Strain/Indicator: TA98, Metabolic Activation: RAT, HEPATOCYTES, AROCLOR 1254, Method: PREINCUBATION): active; positive
- mutagenic call (Test System: AMES SALMONELLA TYPHIMURIUM, Strain/Indicator: TA98, Metabolic Activation: RAT, LIVER, S-9, AROCLOR 1254, Method: PREINCUBATION): active; positive
- mutagenic call (Test System: AMES SALMONELLA TYPHIMURIUM, Strain/Indicator: TA100, Metabolic Activation: RAT, BLADDER, S-9, PCB, Method: FLUCTUATION TEST): active; positive
- mutagenic call (Test System: AMES SALMONELLA TYPHIMURIUM, Strain/Indicator: TA100, Metabolic Activation: RAT, LIVER, S-9, AROCLOR 1254, Method: PREINCUBATION): inactive; negative
- mutagenic call (Test System: AMES SALMONELLA TYPHIMURIUM, Strain/Indicator: YG1019, Metabolic Activation: RAT LIVER S-9, AROCLOR, Method: PREINCUBATION): active; positive
- mutagenic call (Test System: UDS HAMSTER HEPATOCYTES, Strain/Indicator: THY INCORP, Metabolic Activation: NONE, Method: LIQUID SCINTILLATION COUNTING): inactive; negative
- mutagenic call (Test System: UDS RAT HEPATOCYTES, Strain/Indicator: THY INCORP, Metabolic Activation: NONE, Method: LIQUID SCINTILLATION COUNTING): inactive; negative

Compound: Cc1cc(=O)oc2ccc3c(c12)C1(C)OOC1(C)O3 (stereo unspecified)
- mutagenic call [2]: active; positive
